For this assay, the target named is T1, ATP-citrate synthase (Homo sapiens, UniProt P53396).
T1 sequence (P53396 whole entry): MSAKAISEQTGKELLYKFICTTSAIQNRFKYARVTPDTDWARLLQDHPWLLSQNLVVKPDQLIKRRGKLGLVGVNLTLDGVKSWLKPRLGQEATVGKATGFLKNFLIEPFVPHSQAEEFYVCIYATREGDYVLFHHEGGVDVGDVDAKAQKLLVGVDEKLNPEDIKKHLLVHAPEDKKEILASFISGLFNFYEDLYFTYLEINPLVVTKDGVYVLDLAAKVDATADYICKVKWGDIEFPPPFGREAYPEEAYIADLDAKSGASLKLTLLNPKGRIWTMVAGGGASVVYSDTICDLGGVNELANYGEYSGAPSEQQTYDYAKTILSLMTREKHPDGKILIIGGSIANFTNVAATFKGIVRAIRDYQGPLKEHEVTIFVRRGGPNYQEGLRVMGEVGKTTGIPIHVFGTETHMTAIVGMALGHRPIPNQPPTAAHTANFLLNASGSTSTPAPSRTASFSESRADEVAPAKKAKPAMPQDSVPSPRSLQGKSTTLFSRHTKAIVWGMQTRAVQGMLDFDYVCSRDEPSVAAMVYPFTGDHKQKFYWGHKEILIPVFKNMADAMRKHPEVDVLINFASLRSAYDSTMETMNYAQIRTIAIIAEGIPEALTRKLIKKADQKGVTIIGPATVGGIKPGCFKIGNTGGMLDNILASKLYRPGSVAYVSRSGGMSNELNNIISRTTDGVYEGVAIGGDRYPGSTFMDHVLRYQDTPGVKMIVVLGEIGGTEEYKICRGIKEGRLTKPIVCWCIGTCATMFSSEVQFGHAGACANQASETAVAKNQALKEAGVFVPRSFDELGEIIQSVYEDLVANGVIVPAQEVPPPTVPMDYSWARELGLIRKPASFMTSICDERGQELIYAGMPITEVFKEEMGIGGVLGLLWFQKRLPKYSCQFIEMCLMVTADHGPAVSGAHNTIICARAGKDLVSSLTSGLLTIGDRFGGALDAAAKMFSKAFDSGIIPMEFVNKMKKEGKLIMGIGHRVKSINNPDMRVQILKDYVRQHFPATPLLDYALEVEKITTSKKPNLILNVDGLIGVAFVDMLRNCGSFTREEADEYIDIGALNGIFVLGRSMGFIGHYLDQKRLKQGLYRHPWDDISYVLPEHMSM
The assay is described as follows: ADP-Glo Assay: Compounds of the present invention were evaluated in an ADP-GLO assay as follows:a) Dilute cpd 1:3 in succession in DMSO by hand for each cpds for 12 ptsb) Add 0.1 μL diluted cpd solution to assay plate, each dose with 2 replicatesc) Centrifuge 1000 RPM for 1 mind) Add 5 μL ACL working solution to 384-well assay plate, centrifuge 1000 RPM for 1 mine) Incubate at 25° C. for 15 minf) Add 5 μL substrate working solution to initiate reactiong) Final ACL reaction concentrations: 3 nM ACL, 15 μM ATP, 3 μM CoA, 300 μM Citrate, 0.01% Brij35, 4 mM DTT, 1% DMSO;h) Reference final conc: 30 uM starting Conc, 3× dilution, 11+0 points. Test cpd conc: 30/100 uM starting Conc, 3× dilution, 11+0 points.i) Incubate at 25° C. for 60 minj) Add 10 μL ADP Glo reagent, centrifuge 1000 RPM for 1 mink) Incubate at 25° C. for 40 minl) Add 20 μL kinase detection reagent, centrifuge 1000 RPM for 1 minm) Incubate at 25° C. for 40 minn) Read on Envision for US LUM as RLU. Background: In ADP-Glo the light output rises with the ADP produced.

Bounds are passed on as bounds.

By IC50 is commonly meant the point on the concentration scale where inhibition reaches its midpoint. The low end stands for inhibition by little substance, the high end for a need for much substance. With `O=C(O)c1cc2cc(Cl)ccc2n1S(=O)(=O)c1cc(Cl)cc(Cl)c1`, the IC50 is < 0.5 µM.
Turning to `O=S(=O)(c1cc(Cl)cc(Cl)c1)n1c(-c2cncnc2)cc2cc(Cl)ccc21`, the IC50 is > 20 µM.

For the origin of these results see ChEMBL document CHEMBL5729430, “ACLY inhibitors and uses thereof” (2022).
